Laboratory results reported in patent US20190351012A1, “TARGETING OF INTERFERON-STIMULATED GENE EXPRESSION TO TREAT INTERFERONOPATHIES” (New York University, priority 2018, published 2019).

What was measured:
[1] = system: ISG54 promoter and G6TI control templates; assay: In vitro transcription run-off assay with nuclear extracts and recombinant ISGF3; type: biochemical, human; conditions: TSA included in run-off reaction, naked DNA templates
Source text: FIG. 2. […] (A) Nuclear extracts from HEK293T cells expressing activated recombinant ISGF3 (STAT1, STAT2, IRF9 and JAK1) or transfected with vector (Ctl) were programmed with G6TI-CAT (G6TI) or p107 (ISG54) templates. Radiolabeled RNA transcripts were resolved by polyacrylamide-urea gel electrophoresis. Arrow and arrowhead indicate position of the transcripts from G6TI-CAT and p107, respectively. (B) HeLa cells were either left untreated or treated with IFN-α in the absence or presence of TSA (TSA in vivo) before nuclei were isolated for run-on transcription. Where indicated, TSA was added to the elongation reaction in vitro (TSA in vitro). Specific signals from γ-actin, ISG15, ISG56, 6-16, 9-27, IRF9 and GBP transcription were quantified following filter hybridization and normalized to the signal for GAPDH, arbitrarily set to 100. Representative data from three independent experiments are shown. FS2 human diploid fibroblasts were starved for 72 h before being treated with IFN-α for 7.5 h in the absence or presence of TSA. Mononucleosomal DNA fraction was purified from MNase-digested nuclei and analyzed for nucleosome positions by PCR quantitation of protected fragments. All samples were quantified by real-time PCR, except the—53—+1 ISG54 fragment, which was quantified by gel electrophoresis (C). […]

[2] = system: CDK9 at ISG56 and ISG15 promoters; assay: ChIP for CDK9 (P-TEFb) at ISG promoters in 2fTGH cells; type: cell-based, human; conditions: IFN-α 60 min in presence of TSA
Method: FIG. 4. HDAC activity is required for P-TEFb recruitment. (A) HeLa cells were either left untreated or treated with IFN-α for 1 h in presence or absence of 100 or 200 nM of the CDK9 inhibitor flavopiridol (Flay). Using primers spanning intron-exon junctions, nuclear pre-mRNA abundance for ISG54 and RPS11 were quantified using real-time RT-PCR and normalized to GAPDH mRNA. (B) 2fTGH cells were either left untreated or treated with IFN-α in the absence or presence of TSA for 60 min. ChIP assays were performed with antibodies against CDK9 and recovered ISG56 and ISG15 promoter sequences were quantified by real-time PCR relative to input and represented as percent of the input signal. (C) BT474 cells were either left untreated or treated with IFN-α in the absence or presence of TSA after exposure to Geldanamycin (Gelda) for 24 h, as indicated. mRNA for ISG56, OAS2 and c-Myc were quantified by real-time RT-PCR and normalized to GAPDH. […] ISG56 mRNA was quantified using real-time RT-PCR and normalized to GAPDH mRNA abundance (left panel). […] ISG56, Spt5 mRNA, and ISG54 pre-mRNA were quantified using real-time RT-PCR and normalized to GAPDH mRNA abundance.
To directly probe the involvement of P-TEFb in ISG expression, we assessed its recruitment to chromatin in response to IFN treatment. […]

CC(/C=C/C(=O)NO)=C\[C@@H](C)C(=O)c1ccc(N(C)C)cc1 [TSA, Trichostatin A]
inhibition of basal and ISGF3-dependent transcription in vitro [1]: neither basal nor ISGF3-dependent transcription was inhibited | chromatin-bound CDK9 at ISG56 and ISG15 promoters [2]: not observed
